Measured values as given in ChEMBL document CHEMBL3885861, “Open TG-GATES”.

Species: Rattus norvegicus
Experiment: Open TG-GATES - Regimen: Single
Type: toxicity, organism-based, Sprague-Dawley
Parameters: regimen Single, gender Male, age 6 weeks
Details: in vivo, po, 60 mg/kg, route gavage, dose level Low; for APTT / Bas / Eos / Fbg / Hb / Ht / Lym / MCH / MCHC / MCV / Mono / Neu / PT / Plat / RBC / Ret / WBC: tissue Blood; for KIDNEY_L / KIDNEY_R / KIDNEY_TOTAL: tissue Kidney; for LIVER: tissue Liver; for A/G / ALP / ALT / AST / BUN / CRE / Ca / Cl / DBIL / GLC / IP / K / LDH / Na / PL / RALB / TBIL / TC / TG / TP / gamma-GTP: tissue Plasma

## C[C@](N)(Cc1ccc(O)c(O)c1)C(=O)O [METHYLDOPA]
3 h
  TERMINAL_BW: 185.6 g
  APTT: 17.5 s
  Bas: 0%
  Eos: 0.6%
  Fbg: 265.2 mg/dL
  Hb: 12.9 g/dL
  Ht: 38.4%
  Lym: 79%
  MCH: 21.9 pg
  MCHC: 33.5%
  MCV: 65.4 fL
  Mono: 3.2%
  Neu: 16.6%
  PT: 12.5 s
  Plat: 123.5 x10_4/uL
  RBC: 587 x10_4/ul
  Ret: 10.7%
  WBC: 81.1 x10_2/uL
  KIDNEY_L: 0.8 g
  KIDNEY_R: 0.8 g
  KIDNEY_TOTAL: 1.6 g
  LIVER: 7.8 g
  A/G: 0.9
  ALP: 1439.4 IU/L
  ALT: 54.2 IU/L
  AST: 80 IU/L
  BUN: 9 mg/dL
  CRE: 0.1 mg/dL
  Ca: 11.5 mg/dL
  Cl: 107.2 meq/L
  DBIL: 0.02 mg/dL
  GLC: 186 mg/dL
  IP: 10.1 mg/dL
  K: 4.4 meq/L
  LDH: 60.4 IU/L
  Na: 143.8 meq/L
  PL: 142.8 mg/dL
  RALB: 2.6 g/dL
  TBIL: 0.078 mg/dL
  TC: 82.2 mg/dL
  TG: 70.2 mg/dL
  TP: 5.5 g/dL
  gamma-GTP: 1.4 IU/L
6 h
  TERMINAL_BW: 189.2 g
  APTT: 16.7 s
  Bas: 0%
  Eos: 1%
  Fbg: 250.4 mg/dL
  Hb: 13 g/dL
  Ht: 38.6%
  Lym: 78.8%
  MCH: 21.7 pg
  MCHC: 33.6%
  MCV: 64.8 fL
  Mono: 3.2%
  Neu: 16.2%
  PT: 12.4 s
  Plat: 117 x10_4/uL
  RBC: 596.4 x10_4/ul
  Ret: 10.3%
  WBC: 64 x10_2/uL
  KIDNEY_L: 0.8 g
  KIDNEY_R: 0.8 g
  KIDNEY_TOTAL: 1.6 g
  LIVER: 7.6 g
  A/G: 0.9
  ALP: 1752.4 IU/L
  ALT: 50.2 IU/L
  AST: 82 IU/L
  BUN: 6.4 mg/dL
  CRE: 0.2 mg/dL
  Ca: 11.2 mg/dL
  Cl: 107.6 meq/L
  DBIL: 0.008 mg/dL
  GLC: 184 mg/dL
  IP: 11.4 mg/dL
  K: 4.7 meq/L
  LDH: 49.8 IU/L
  Na: 144.2 meq/L
  PL: 125.8 mg/dL
  RALB: 2.5 g/dL
  TBIL: 0.064 mg/dL
  TC: 79 mg/dL
  TG: 45.6 mg/dL
  TP: 5.4 g/dL
  gamma-GTP: 1 IU/L
9 h
  TERMINAL_BW: 187.5 g
  APTT: 17.1 s
  Bas: 0%
  Eos: 0.8%
  Fbg: 248.8 mg/dL
  Hb: 12.8 g/dL
  Ht: 37.7%
  Lym: 74.4%
  MCH: 22 pg
  MCHC: 34%
  MCV: 64.7 fL
  Mono: 2.6%
  Neu: 21.2%
  PT: 12.4 s
  Plat: 117.7 x10_4/uL
  RBC: 583 x10_4/ul
  Ret: 10%
  WBC: 65.1 x10_2/uL
  KIDNEY_L: 0.8 g
  KIDNEY_R: 0.8 g
  KIDNEY_TOTAL: 1.6 g
  LIVER: 7.1 g
  A/G: 0.9
  ALP: 1707.4 IU/L
  ALT: 47 IU/L
  AST: 75.6 IU/L
  BUN: 10.6 mg/dL
  CRE: 0.1 mg/dL
  Ca: 11 mg/dL
  Cl: 107.4 meq/L
  DBIL: 0.008 mg/dL
  GLC: 201.2 mg/dL
  IP: 10.6 mg/dL
  K: 4.5 meq/L
  LDH: 51.4 IU/L
  Na: 144.2 meq/L
  PL: 111.8 mg/dL
  RALB: 2.5 g/dL
  TBIL: 0.064 mg/dL
  TC: 71.2 mg/dL
  TG: 32.4 mg/dL
  TP: 5.2 g/dL
  gamma-GTP: 1 IU/L
24 h
  TERMINAL_BW: 194.5 g
  APTT: 18.6 s
  Bas: 0%
  Eos: 1.2%
  Fbg: 242.4 mg/dL
  Hb: 13.1 g/dL
  Ht: 38.9%
  Lym: 78.4%
  MCH: 21.4 pg
  MCHC: 33.7%
  MCV: 63.6 fL
  Mono: 2.8%
  Neu: 17.4%
  PT: 12.6 s
  Plat: 115.8 x10_4/uL
  RBC: 612.6 x10_4/ul
  Ret: 9.4%
  WBC: 81.6 x10_2/uL
  KIDNEY_L: 0.8 g
  KIDNEY_R: 0.8 g
  KIDNEY_TOTAL: 1.6 g
  LIVER: 9.2 g
  A/G: 0.9
  ALP: 1854.6 IU/L
  ALT: 52 IU/L
  AST: 81.2 IU/L
  BUN: 15.6 mg/dL
  CRE: 0.2 mg/dL
  Ca: 11.4 mg/dL
  Cl: 108 meq/L
  DBIL: 0.016 mg/dL
  GLC: 189.8 mg/dL
  IP: 8 mg/dL
  K: 4.5 meq/L
  LDH: 98.4 IU/L
  Na: 143.6 meq/L
  PL: 136.2 mg/dL
  RALB: 2.6 g/dL
  TBIL: 0.064 mg/dL
  TC: 71.4 mg/dL
  TG: 85.4 mg/dL
  TP: 5.5 g/dL
  gamma-GTP: 1 IU/L
